Results reported in US11299496B2, “Ligands for alpha-7 nicotinic acetylcholine receptors and methods of treating neurological and inflammatory conditions” (Northeastern University, priority 2014, dated 2022).

Molecular target: T1, human alpha-7 nAChR (Homo sapiens, UniProt P36544)
T1 construct: expressed in transfected cells; host or cells: Xenopus laevis oocytes (cRNA injection)
Assay: Two-electrode voltage clamp of alpha-7 nAChR expressed in Xenopus oocytes (net charge)
Type: cell-based
Details: for Charge Alone: compound alone acting as an allosteric agonist; for Charge Alone / Charge +C: area under the curve of current vs. time; for Charge +C: compound together with choline or ACh, includes PAM and ago-PAM activity; call rule not given here
Method in brief: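 Human α7 nAChR co-expressed with RIC-3 in Xenopus oocytes; two-electrode clamp at −60 mV, 12 s applications in Ringer's pH 7.3. Net charge integrated over 120 s from application, normalized to prior ACh controls; measured for compound alone and with choline or ACh; n≥4 oocytes.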

T1 sequence (P36544 23-502): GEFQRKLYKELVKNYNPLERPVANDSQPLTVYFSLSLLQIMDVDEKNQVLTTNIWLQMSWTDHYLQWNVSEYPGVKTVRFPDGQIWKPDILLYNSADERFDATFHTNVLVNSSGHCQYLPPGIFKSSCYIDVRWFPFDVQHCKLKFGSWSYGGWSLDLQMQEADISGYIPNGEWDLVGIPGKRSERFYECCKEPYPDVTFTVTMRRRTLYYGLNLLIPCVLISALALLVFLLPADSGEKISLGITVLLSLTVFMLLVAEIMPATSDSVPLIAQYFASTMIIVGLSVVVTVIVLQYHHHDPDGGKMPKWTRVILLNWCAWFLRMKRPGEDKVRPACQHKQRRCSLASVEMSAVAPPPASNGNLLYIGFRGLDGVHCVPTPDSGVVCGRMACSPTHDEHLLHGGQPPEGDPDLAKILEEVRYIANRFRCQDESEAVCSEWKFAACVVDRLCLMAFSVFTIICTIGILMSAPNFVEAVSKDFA

Compound	Charge Alone	Charge +C	'ago' component / ago-PAM activity (in words)
CCCNS(=O)(=O)c1ccc2c(c1)[C@H]1C=CC[C@H]1[C@@H](c1ccccc1)N2 (stereo in doubt) [Compound 112, 4-phenyl-N-propyl-3a,4,5,9b-tetrahydro-3H-cyclopenta[c]quinoline-8-sulfonamide]	Inactive	Inactive	–
CS(=O)(=O)Nc1ccc2c(c1)[C@H]1C=CC[C@H]1[C@@H](c1ccc(Br)cc1)N2 (stereo in doubt) [Compound 115, N-(4-(4-bromophenyl)-3a,4,5,9b-tetrahydro-3H-cyclopenta[c]quinolin-8-yl)methanesulfonamide]	Inactive	Inactive	–
CC(=O)NS(=O)(=O)c1ccc2c(c1)[C@H]1C=CC[C@H]1[C@@H](c1ccc(Br)cc1)N2 (stereo in doubt) [Compound 116, N-((4-(4-bromophenyl)-3a,4,5,9b-tetrahydro-3H-cyclopenta[c]quinolin-8-yl)sulfonyl)acetamide]	Inactive	Inactive	–
O=C(O)c1ccc2c(c1)[C@H]1C=CC[C@H]1[C@@H](c1ccc(Cl)cc1Cl)N2 [Compound 29, 4-(2,4-dichlorophenyl)-3a,4,5,9b-tetrahydro-3H-cyclopenta[c]quinoline-8-carboxylic acid]	Inactive	Inactive	–
CC(=O)c1ccc2c(c1)[C@H]1C=CC[C@H]1[C@@H](c1cc3c(cc1Br)OCO3)N2 [Compound 30]	Inactive	Inactive	–
N#Cc1ccc([C@H]2Nc3ccc(S(N)(=O)=O)cc3[C@H]3C=CC[C@H]32)s1 [Compound 34, 4-(5-cyanothiophen-2-yl)-3a,4,5,9b-tetrahydro-3H-cyclopenta[c]quinoline-8-sulfonamide]	Insoluble	Insoluble	–
[N-]=[N+]=Nc1c(F)c(F)c([C@H]2Nc3ccc(S(N)(=O)=O)cc3[C@H]3C=CC[C@H]32)c(F)c1F [Compound 43, (3aR,4S,9bS)-4-(4-azido-2,3,5,6-tetrafluorophenyl)-3a,4,5,9b-tetrahydro-3H-cyclopenta[c]quinoline-8-sulfonamide]	–	5.5	–
NS(=O)(=O)c1ccc2c(c1)[C@H]1C=CC[C@H]1[C@@H](c1ccc(C3(C(F)(F)F)N=N3)cc1)N2 [Compound 44, (3aR,4S,9bS)-4-(4-(3-(trifluoromethyl)-3H-diazirin-3-yl)phenyl)-3a,4,5,9b-tetrahydro-3H-cyclopenta[c]quinoline-8-sulfonamide]	14	350	–
NS(=O)(=O)c1ccc2c(c1)[C@@H]1C=CC[C@@H]1[C@H](c1ccc(I)cc1)N2 [Compound 45, (3aS,4R,9bR)-4-(4-iodophenyl)-3a,4,5,9b-tetrahydro-3H-cyclopenta[c]quinoline-8-sulfonamide]	Inactive	Inactive	–
NS(=O)(=O)c1ccc2c(c1)[C@H]1C=CC[C@H]1[C@@H](c1ccc(I)cc1)N2 [Compound 46, (3aR,4S,9bS)-4-(4-iodophenyl)-3a,4,5,9b-tetrahydro-3H-cyclopenta[c]quinoline-8-sulfonamide]	242	684	–
[N-]=[N+]=Nc1ccc([C@@H]2Nc3ccc(S(N)(=O)=O)cc3[C@@H]3C=CC[C@@H]32)cc1 [Compound 47, (3aS,4R,9bR)-4-(4-azidophenyl)-3a,4,5,9b-tetrahydro-3H-cyclopenta[c]quinoline-8-sulfonamide]	Inactive	Inactive	–
[N-]=[N+]=Nc1ccc([C@H]2Nc3ccc(S(N)(=O)=O)cc3[C@H]3C=CC[C@H]32)cc1 [Compound 48, (3aR,4S,9bS)-4-(4-azidophenyl)-3a,4,5,9b-tetrahydro-3H-cyclopenta[c]quinoline-8-sulfonamide]	61	764	–
NS(=O)(=O)c1ccc2c(c1)[C@H]1C=CC[C@H]1[C@@H](c1ccc(OCc3ccccc3)cc1)N2 [Compound 50, (3aR,4S,9bS)-4-(4-(benzyloxy)phenyl)-3a,4,5,9b-tetrahydro-3H-cyclopenta[c]quinoline-8-sulfonamide]	20	67	moderate ago-PAM activity
NS(=O)(=O)c1ccc2c(c1)[C@H]1C=CC[C@H]1[C@@H](c1cccnc1)N2 [Compound 51, 4-(pyridin-3-yl)-3a,4,5,9b-tetrahydro-3H-cyclopenta[c]quinoline-8-sulfonamide]	–	10	–
O=S(=O)(c1ccc2c(c1)[C@H]1C=CC[C@H]1[C@@H](c1ccc(Br)cc1)N2)N1CCC1 [Compound 54, 8-(azetidin-1-ylsulfonyl)-4-(4-bromophenyl)-3a,4,5,9b-tetrahydro-3H-cyclopenta[c]quinolone]	Inactive	Inactive	–
O=S(=O)(c1ccc2c(c1)[C@@H]1C=CC[C@@H]1[C@H](c1ccc(Br)cc1)N2)N1CCCC1 [Compound 56, (3aS,4R,9bR)-4-(4-bromophenyl)-8-(pyrrolidin-1-ylsulfonyl)-3a,4,5,9b-tetrahydro-3H-cyclopenta[c]quinolone]	Inactive	Inactive	–
O=S(=O)(c1ccc2c(c1)[C@H]1C=CC[C@H]1[C@@H](c1ccc(Br)cc1)N2)N1CCCC1 [Compound 57, (3aR,4S,9bS)-4-(4-bromophenyl)-8-(pyrrolidin-1-ylsulfonyl)-3a,4,5,9b-tetrahydro-3H-cyclopenta[c]quinolone]	Inactive	Inactive	–
NS(=O)(=O)c1ccc2c(c1)C1C=CCC1C(c1ccc(C(=O)O)cc1)N2 (stereo not shown) [Compound 58, 4-(8-sulfamoyl-3a,4,5,9b-tetrahydro-3H-cyclopenta[c]quinolin-4-yl)benzoic acid]	Inactive	Inactive	–
COC(=O)Nc1ccc([C@H]2Nc3ccc(S(N)(=O)=O)cc3[C@H]3C=CC[C@H]32)cc1 [Compound 59, methyl(4-(8-sulfamoyl-3a,4,5,9b-tetrahydro-3H-cyclopenta[c]quinolin-4-yl)phenyl)carbamate]	–	480	–
NS(=O)(=O)c1ccc2c(c1)[C@H]1C=CC[C@H]1[C@@H](c1cc(Br)sc1Br)N2 [Compound 67, (3aR,4S,9bS)-4-(2,5-dibromothiophen-3-yl)-3a,4,5,9b-tetrahydro-3H-cyclopenta[c]quinoline-8-sulfonamide]	–	100	–
NS(=O)(=O)c1ccc2c(c1)[C@H]1C=CC[C@H]1[C@@H](c1ccc(CCCBr)cc1)N2 [Compound 71, 4-(4-(3-bromopropyl)phenyl)-3a,4,5,9b-tetrahydro-3H-cyclopenta[c]quinoline-8-sulfonamide]	1	284	–
NS(=O)(=O)c1ccc2c(c1)[C@H]1C=CC[C@H]1[C@@H](c1ccc(Br)nc1)N2 [Compound 94, 4-(6-bromopyridin-3-yl)-3a,4,5,9b-tetrahydro-3H-cyclopenta[c]quinoline-8-sulfonamide]	29	348	–
O=S(=O)(NC1CCC1)c1ccc2c(c1)[C@H]1C=CC[C@H]1[C@@H](c1ccc(Br)cc1)N2 [Compound 104, 4-(4-bromophenyl)-N-cyclobutyl-3a,4,5,9b-tetrahydro-3H-cyclopenta[c]quinoline-8-sulfonamide]	Inactive	Inactive	–
CCNS(=O)(=O)c1ccc2c(c1)[C@@H]1C=CC[C@@H]1[C@@H](c1ccc(Br)cc1)N2 [Compound 113]	Inactive	Inactive	–
CCNS(=O)(=O)c1ccc2c(c1)[C@H]1C=CC[C@H]1[C@@H](c1ccc(Br)cc1)N2 [Compound 114]	Inactive	Inactive	–
CS(=O)(=O)c1ccc2c(c1)[C@H]1C=CC[C@H]1[C@@H](c1ccc(Br)cc1)N2 [Compound 117, 4-(4-bromophenyl)-8-(methylsulfonyl)-3a,4,5,9b-tetrahydro-3H-cyclopenta[c]quinolone]	Inactive	Inactive	–
